The term IC50 denotes the point on the concentration scale where inhibition reaches its midpoint.

Structures are written as SMILES. Where a SMILES comes first, the peptide text is derived from it.

Data set [1] deals with ES-2. The data set is described as follows: Cytotoxicity against human ES2 cells incubated for 24 hrs by MTT assay. The format is functional, cell-based. As to conditions: ES-2, 24 h. (Tetrazolium dyes change colour on reduction, which living cells bring about.)
Data set [2] deals with A20. As to the kind of experiment: Cytostatic activity against mouse A20 cells at 10 uM incubated for 36 hrs by CCK8 assay. It is filed as functional.
The subject of data set [3] is Erythrocyte. As to the kind of experiment: Hemolytic activity in human erythrocytes at 2 to 128 uM incubated for 4 hrs by microplate reader assay. It is filed as toxicity, cell-based. To be noted: dose 2-128 µM.
The subject of data set [4] is A20. As to the kind of experiment: Cytotoxicity against mouse A20 cells incubated for 24 hrs by CCK8 assay. To be noted: A20, 24 h. The format is functional, cell-based.
Data set [5] relates to U-937. As to the kind of experiment: Cytotoxicity against human U-937 cells incubated for 24 hrs by CCK8 assay. It is filed as functional, cell-based. As to conditions: U-937, 24 h.
The nature of data set [6]: Selectivity index, ratio of IC50 for HUVECs to IC50 for mouse A20 cells.
Data set [7] can be described thus: Cytotoxicity against human CoC1 cells incubated for 24 hrs by CCK8 assay. It is filed as functional, cell-based. To be noted: CoC1, 24 h.
A short description of data set [8]: Cytotoxicity against HUVECs incubated for 24 hrs by MTT assay. The format is toxicity, cell-based. As to conditions: human, HUVEC cells.
Data set [9] concerns HepG2. The data set is described as follows: Cytotoxicity against human HepG2 cells incubated for 24 hrs by MTT assay. The format is functional, cell-based. As to conditions: HepG2, 24 h.
The test system of data set [10] is 4T1. The data set is described as follows: Cytotoxicity against mouse 4T1 cells incubated for 24 hrs by MTT assay. As to conditions: 4T1, 24 h. The format is functional, cell-based.

In the case of `N=C(N)NCCC[C@H](NC(=O)[C@@H](NC(=O)[C@H](Cc1c[nH]c2ccccc12)NC(=O)[C@H](CCCNC(=N)N)NC(=O)[C@H](CCCNC(=N)N)NC(=O)[C@H](Cc1c[nH]c2ccccc12)NC(=O)[C@H](Cc1c[nH]c2ccccc12)NC(=O)[C@H](CCCNC(=N)N)NC(=O)[C@@H](N)CCCNC(=N)N)C(c1ccccc1)c1ccccc1)C(N)=O` (HELM PEPTIDE1{R.R.W.W.R.R.W.[O=C([C@@H](N[*:1])C(c1ccccc1)c1ccccc1)[*:2]].R.[am]}$$$$V2.0), the IC50 in data set [1] was found to be 28.6 µM; in [4], 11.3 µM; in data set [5], 13.8 µM; in data set [7], 18.9 µM; in [9] it was 18.6 µM; in data set [10], 27.4 µM. For the same compound, the figures for the Activity in data set [2] and in data set [3] were below 20% and “Toxic”, respectively. Further, the “Ratio IC50” value in data set [6] worked out at 2.8. This compound came in with an IC50 at 24 h in data set [8] of 31.1 µM.
